# Experimental data published in patent publication US12655116B2, “Substituted isophthalic acid diamides” (Bayer Aktiengesellschaft, priority 2020, dated 2026).
# Tests used:
# ALOMY [1] = assay: Pre-emergence herbicidal action against ALOMY; assay type: in vivo, Alopecurus myosuroides; settings: 80 g/ha, pre-emergence, scored visually after 3 weeks vs untreated controls (100% = plants have died, 0% = like control plants)
# How it was run: (§1)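 Herbicidal effect was assessed 3 weeks after treatment by visual comparison with untreated controls, 100% denoting dead plants. Aqueous WP or EC preparations had been applied at 600 to 800 l/ha with 0.2% wetting agent to the soil covering freshly sown seeds.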
# AMARE [2] = assay: Pre-emergence herbicidal action against AMARE; assay type: in vivo, Amaranthus retroflexus
# How it was run: as §1
# DIGSA [3] = assay: Pre-emergence herbicidal action against DIGSA; assay type: in vivo, Digitaria sanguinalis
# How it was run: as §1
# VERPE [4] = assay: Post-emergence herbicidal action against VERPE; assay type: in vivo, Veronica persica; settings: 20 g/ha
# Protocol: (§2) Seeds of monocotyledonous and dicotyledonous weed and crop plants are laid out in sandy loam soil in wood-fiber pots, covered with soil and cultivated in a greenhouse under good growth conditions. 2 to 3 weeks after sowing, the test plants are treated at the one-leaf stage. The compounds of the invention, formulated in the form of wettable powders (WP) or as emulsion concentrates (EC), are then sprayed onto the green parts of the plants in the form of an aqueous suspension or emulsion at a water application rate equivalent to 600 to 800 l/ha, with addition of 0.2% wetting agent. After the test plants have been left to stand in the greenhouse under optimal growth conditions for about 3 weeks, the action of the preparations is assessed visually in comparison to untreated controls (herbicidal action in percent (%): 100% activity=the plants have died, 0% activity=like control plants). […] The tables below illustrate, in an illustrative manner, the post-emergence herbicidal action of the compounds of the invention, the herbicidal activity being stated in percent.
# MATIN [5] = assay: Pre-emergence herbicidal action against MATIN; assay type: in vivo, Matricaria inodora
# How it was run: as §1
# ECHCG [6] = assay: Post-emergence herbicidal action against ECHCG; assay type: in vivo, Echinochloa crus-galli
# How it was run: (§3)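 Post-emergence greenhouse test; one-leaf stage, 2–3 wk post-sowing, sandy loam. Foliar spray of WP/EC in water, 600–800 l/ha, +0.2% wetting agent. Visual % action at ~3 wk vs untreated (100% = plants dead).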
# VIOTR [7] = assay: Post-emergence herbicidal action against VIOTR; assay type: in vivo, Viola tricolor; settings: 20 g/ha
# Protocol: as §2
# PHBPU = assay: Post-emergence herbicidal action against PHBPU; assay type: in vivo, Pharbitis purpurea
# How it was run: as §3
# ECHCG [8] = assay: Pre-emergence herbicidal action against ECHCG; assay type: in vivo, Echinochloa crus-galli
# How it was run: as §1
# SETVI [9] = assay: Pre-emergence herbicidal action against SETVI; assay type: in vivo, Setaria viridis
# How it was run: as §1
# VIOTR [10] = assay: Pre-emergence herbicidal action against VIOTR; assay type: in vivo, Viola tricolor
# How it was run: as §1
# AMARE [11] = assay: Post-emergence herbicidal action against AMARE; assay type: in vivo, Amaranthus retroflexus; settings: 20 g/ha, visual assessment about 3 weeks after treatment, 100% = plants have died, 0% = like control plants
# How it was run: as §3
# ABUTH [12] = assay: Pre-emergence herbicidal action against ABUTH; assay type: in vivo, Abutilon theophrasti; settings: for Pre-emergence action against ABUTH (herbicidal activity): 80 g/ha, scored visually after 3 weeks vs untreated controls (100% = plants have died, 0% = like control plants); for Pre-emergence action against ABUTH (herbicidal activity in percent): dosage 20 g/ha, scored visually after 3 weeks vs untreated controls, 100% = plants have died, 0% = like control plants
# How it was run: as §1
# ALOMY [13] = assay: Post-emergence herbicidal action against ALOMY; assay type: in vivo, Alopecurus myosuroides; settings: dosage 20 g/ha, visual assessment about 3 weeks after treatment vs untreated controls
# Protocol: as §2
# VERPE [14] = assay: Pre-emergence herbicidal action against VERPE; assay type: in vivo, Veronica persica; settings: dosage 80 g/ha
# Excerpt: (§4) Seeds of monocotyledonous and dicotyledonous weed plants and crop plants are laid out in sandy loam soil in wood-fiber pots and covered with soil. The compounds of the invention, formulated in the form of wettable powders (WP) or as emulsion concentrates (EC), are then applied to the surface of the covering soil in the form of an aqueous suspension or emulsion at a water application rate equivalent to 600 to 800 l/ha, with addition of 0.2% wetting agent. After the treatment, the pots are placed in a greenhouse and kept under good growth conditions for the trial plants. The damage to the test plants is scored visually after a test period of 3 weeks by comparison with untreated controls (herbicidal activity in percent (%): 100% activity=the plants have died, 0% activity=like control plants). […] The tables below illustrate, in an illustrative manner, the post-emergence herbicidal action of the compounds of the invention, the herbicidal activity being stated in percent.
# ABUTH [15] = assay: Post-emergence herbicidal action against ABUTH; assay type: in vivo, Abutilon theophrasti; settings: visual assessment about 3 weeks after treatment vs untreated controls
# How it was run: as §3
# SETVI [16] = assay: Post-emergence herbicidal action against SETVI; assay type: in vivo, Setaria viridis; settings: dosage 20 g/ha
# How it was run: as §3
# AVEFA = assay: Pre-emergence herbicidal action against AVEFA; assay type: in vivo, Avena fatua; settings: 80 g/ha, pre-emergence
# Excerpt: as §4
# DIGSA [17] = assay: Post-emergence herbicidal action against DIGSA; assay type: in vivo, Digitaria sanguinalis; settings: 20 g/ha
# How it was run: as §3
# MATIN [18] = assay: Post-emergence herbicidal action against MATIN; assay type: in vivo, Matricaria inodora; settings: dosage 20 g/ha
# Protocol: as §2
# [19] = 20 g/ha, scored visually after 3 weeks vs untreated controls, 100% = plants have died, 0% = like control plants
# [20] = 80 g/ha, scored visually after 3 weeks vs untreated controls (100% = plants have died, 0% = like control plants)
Compound,Pre-emergence action against ALOMY (herbicidal activity) (ALOMY [1]),Pre-emergence action against AMARE in % (AMARE [2]; [19]),Pre-emergence action against AMARE in % (AMARE [2]; [20]),Pre-emergence action against MATIN in % (MATIN [5]; dosage 80 g/ha),Post-emergence action against ECHCG in % (ECHCG [6]; dosage 20 g/ha),Post-emergence action against PHBPU in % (PHBPU; dosage 20 g/ha),Pre-emergence action against ECHCG in % (ECHCG [8]; 80 g/ha),Pre-emergence action against SETVI in % (SETVI [9]; dosage 80 g/ha),Pre-emergence action against VIOTR in % (VIOTR [10]; dosage 80 g/ha),Post-emergence action at 20 g/ha against AMARE in % (AMARE [11]),Pre-emergence action against ABUTH (herbicidal activity) (ABUTH [12]),Post-emergence action against ALOMY in % (ALOMY [13]),Pre-emergence action against ABUTH (herbicidal activity in percent) (ABUTH [12]),Post-emergence action against ABUTH in % (ABUTH [15]; dosage 20 g/ha),Pre-emergence action against MATIN in % (MATIN [5]; dosage 20 g/ha),further results
Cc1c(C(=O)Nc2nnnn2C)ccc(C(F)(F)F)c1C(=O)NCC1CCCO1 (centres unmarked) [Example 1-37],100%,100%,100%,90%,80%,80%,80%,100%,100%,,,,,,,Pre-emergence action against DIGSA in % (DIGSA [3]; dosage 20 g/ha): 80%; Pre-emergence action against DIGSA in % (DIGSA [3]; dosage 80 g/ha): 100%; Post-emergence action against VERPE in % (VERPE [4]): 80%; Post-emergence action against ECHCG in % (ECHCG [6]; dosage 5 g/ha): 80%; Post-emergence action against VIOTR in % (VIOTR [7]): 80%; Pre-emergence action against SETVI in % (SETVI [9]; dosage 20 g/ha): 90%
CN(C)C(=O)CNC(=O)c1c(C(F)F)ccc(C(=O)Nc2nnnn2C)c1Cl [Example 1-160],,100%,100%,80%,,,,,80%,100%,80%,80%,,,,
CCn1nnnc1NC(=O)c1ccc(C(F)(F)F)c(C(=O)NCC#N)c1C [Example 2-36],,100%,100%,90%,,,,,100%,90%,100%,90%,90%,,,Pre-emergence action against DIGSA in % (DIGSA [3]; dosage 80 g/ha): 90%
CCn1nnnc1NC(=O)c1ccc(C(F)F)c(C(=O)NCC(=O)N(C)C)c1Cl [Example 2-160],,100%,100%,90%,,,,,100%,100%,90%,80%,,90%,,Pre-emergence action against VERPE in % (VERPE [14]): 80%
CCn1nnnc1NC(=O)c1ccc(C(F)(F)F)c(C(=O)NCC(F)(F)F)c1Br [Example 2-211],90%,100%,100%,100%,80%,80%,90%,100%,80%,90%,100%,80%,100%,80%,90%,Post-emergence action against SETVI in % (SETVI [16]): 90%; Pre-emergence action against AVEFA in % (AVEFA): 80%; Post-emergence action against PHBPU in % (PHBPU; dosage 5 g/ha): 80%; Post-emergence action against DIGSA (DIGSA [17]): 80%; Post-emergence action against ABUTH in % (ABUTH [15]; dosage 5 g/ha): 80%; Post-emergence action against MATIN in % (MATIN [18]): 80%
CCNC(=O)c1c(OC)ccc(C(=O)Nc2nnnn2CC)c1Cl [Example 2-353],90%,100%,100%,100%,,80%,,,100%,100%,100%,,,100%,90%,Post-emergence action against VERPE in % (VERPE [4]): 100%; Post-emergence action against VIOTR in % (VIOTR [7]): 80%; Post-emergence action against PHBPU in % (PHBPU; dosage 5 g/ha): 80%; Post-emergence action against ABUTH in % (ABUTH [15]; dosage 5 g/ha): 90%; Post-emergence action against MATIN in % (MATIN [18]): 80%; Pre-emergence action against VIOTR in % (VIOTR [10]; dosage 20 g/ha): 90%
Cc1nnc(NC(=O)c2ccc(C(F)(F)F)c(C(=O)NCC3CC3)c2Br)o1 [Example 6-161],90%,100%,100%,100%,90%,80%,100%,100%,80%,100%,100%,90%,100%,90%,100%,Post-emergence action against SETVI in % (SETVI [16]): 90%; Post-emergence action against ECHCG in % (ECHCG [6]; dosage 5 g/ha): 90%; Pre-emergence action against ECHCG in % (ECHCG [8]; 20 g/ha): 80%
